Experimental data from a melting point compilation (Tetko et al.; mined from patent text by program, amines drawn as free bases though some values may be those of a salt).

Compound	melting point
Cc1nc2c(O)cccn2c(=O)c1CCO	150 °C
Nc1sc2c(c1C(=O)c1ccc(Cl)cc1)CCC(Cc1ccccc1)C2 (stereo not drawn)	60 to 62 °C
COc1ccc(C(=O)Nc2ccccc2)cc1Nc1ccc(C)cc1	187 to 188 °C
OC(CN1CCNC1=S)c1ccncc1 (stereo not drawn)	204 °C
CCCn1cc(Cc2ccc(C(=O)O)cc2OC)c2cc(CCNC(=O)N3CCOCC3)ccc21	105 to 113 °C
CC(=O)OC1CCC2(C)C(CCC3C2CC(OC(C)=O)C2(C)C(C(C)CCC=O)CCC32)C1 (stereo not drawn)	145 °C
O=[N+]([O-])c1ccc(-c2cccnc2)s1	169 to 171 °C
CCOC(=O)c1nn(-c2ccc(N=[N+]=[N-])cc2)c(=O)c2c(N)scc12	169 to 170 °C
Cc1ccc(-c2cc(CN3CCN(C(=O)OC(C)(C)C)CC3)c(=O)n(CC(C)C)n2)cc1F	68.7 to 69 °C
CCOc1ncccc1OCC1(c2onc(-c3ccc(O)cc3)c2-c2ccccc2)CC1	190 to 192 °C
CC(C)(C)C(=O)Oc1ccc(C(O)c2ccc(OC(=O)C(C)(C)C)cc2)cc1	148 to 152 °C
CS(=O)(=O)OC[C@@H](O)COc1ccc(C#N)cc1	119 to 121 °C
NS(=O)(=O)c1ccc(N2C(=O)CN(c3ccccc3)C2=O)cc1	291 to 296 °C
CC1(C)OC(c2ccc(-c3ccc(Cl)cc3)cc2)OC1=O (stereo not drawn)	108 to 110 °C
COCCc1nc2c(N)nc3ccc(Br)cc3c2n1CCCN1CCCC1=O	185 to 188 °C
CC1CC(=O)NN=C1c1ccc(N2CCC(CN3C(=O)c4ccccc4C3=O)CC2)c([N+](=O)[O-])c1 (stereo not drawn)	256 to 258 °C
COc1c(C)c(C)c(OC)c(CC[C@@]2(C)CO2)c1C	47 to 48 °C
Cc1c(CC(=O)NCCO[N+](=O)[O-])cc(-c2ccc(S(C)(=O)=O)cc2)n1-c1ccccc1	89 °C
CCOC(=O)C1=C(C)NC(COCCN=[N+]=[N-])=C(C(=O)OC)C1c1cccc(Cl)c1Cl (stereo not drawn)	126 °C

Compound	melting point
COc1ccc(C(=O)Nc2ccccc2)cc1NCc1cccc(O)c1	168 to 170 °C
Oc1ccc(-c2nc(-c3ccc(F)cc3)c(-c3ccncc3)[nH]2)cc1	214 to 215 °C
CC(C)CCCC(C)C1CCC2C3CC=C4CCCC(O)C4(C)C3CCC12C (stereo not drawn)	102 to 103 °C
Cc1ccc(P2(=O)c3ccccc3CN2c2ccccc2)cc1 (stereo not drawn)	180 to 181 °C
COCCOc1ccc(CCCOC(=O)NS(=O)(=O)NCCc2cccs2)c(Oc2ncc(C(F)(F)F)cc2Cl)c1	118 °C
C[C@@H](NS(=O)(=O)c1ccc(Cl)cc1)[C@](O)(Cn1cncn1)c1ccc(Cl)cc1Cl (relative stereo)	160 to 165 °C
CCCCOc1cc2c(cc1C(=O)NC)CC(N(CCC)CCC)C2 (stereo not drawn)	129 to 130 °C
CCOC(=O)C1=C(C)NC(CO)=C(C(=O)OCC)C1c1cccs1 (stereo not drawn)	125 to 126 °C
CC1(C)CON(Cc2ccc(NC(=O)Cc3ccccc3C(=O)O)cc2Cl)C1=O	194 to 196 °C
CCOC(=O)Nc1nc(C)c(-c2nc3ccccc3c(=O)n2-c2ccccc2)s1	248 to 251 °C
CC1(C)Oc2ccc(C#N)cc2C(Nn2ccccc2=O)C1(C)O (stereo not drawn)	184 to 187 °C
Cn1ccnc1Sc1ccc(Nc2c(C#N)cnc3cc(-c4ccc(CN5CCNCC5)cc4)ccc23)cc1Cl	140 to 142 °C
O=C(Nc1ccc2[nH]ncc2c1)O[C@@H](c1cccc(C(F)(F)F)c1)[C@@H]1CCCCN1	190 °C
COC(=O)NCCCCn1c(=O)c2c(C)nc3cccc1n32	175 to 176 °C
CCCCc1nc2c(N)nc3ccccc3c2n1CCN1C(=N)NC2CSC(CCCCC(N)=O)C21 (stereo not drawn)	95 to 96 °C
CC1=C(c2ccncc2)CC(C)C(=O)N1 (stereo not drawn)	148 to 150 °C
CC(=O)c1cccc(Oc2ncccc2OCCCc2ccncc2)c1	117 to 119 °C
CCSc1ccc(-c2c(Cl)ncn2-c2ccc(S(C)(=O)=O)cc2)cc1	181 to 185 °C
NCc1cccc(-c2csc(N=C(N)N)n2)n1	228 to 229 °C
